What was measured:
[1] = Displacement of [3H]-EMPA from human orexin 2 receptor expressed in CHO cells incubated for 2 hrs by whole cell radioligand binding assay; format: cell-based; conditions: for IC50: CHO
[2] = target: T1, Orexin/Hypocretin receptor type 1 (Homo sapiens, UniProt O43613); test: Displacement of [3H]-[…] from human orexin 1 receptor expressed in CHO cells incubated for 2 hrs by whole cell radioligand binding assay; format: cell-based
T1 sequence (O43613 whole entry): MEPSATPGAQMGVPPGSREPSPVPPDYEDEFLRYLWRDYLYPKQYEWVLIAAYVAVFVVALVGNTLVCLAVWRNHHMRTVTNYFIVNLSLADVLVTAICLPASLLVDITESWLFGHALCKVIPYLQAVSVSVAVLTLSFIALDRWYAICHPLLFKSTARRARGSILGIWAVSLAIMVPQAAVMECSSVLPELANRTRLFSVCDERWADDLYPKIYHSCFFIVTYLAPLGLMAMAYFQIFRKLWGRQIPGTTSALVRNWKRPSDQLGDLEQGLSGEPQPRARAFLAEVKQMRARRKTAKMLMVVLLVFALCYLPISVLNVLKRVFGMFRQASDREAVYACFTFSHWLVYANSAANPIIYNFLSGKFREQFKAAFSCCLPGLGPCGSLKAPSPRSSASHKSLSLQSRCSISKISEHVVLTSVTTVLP

SMILES | IC50 [1] [µM] | IC50 [2] [µM] | pKi [1] | Ki [2] [µM]
COc1cc(=O)n2c(c1C(=O)N(C)[C@H](C)c1ccco1)CCN(C(=O)C1(c3ccccc3)CC1)CC2 | > 100 | > 100 | – | –
C[C@@H]1CN(c2cccc(Cl)c2)C(=O)CN1C(=O)c1cccc2ccccc12 | > 100 | > 100 | – | –
Cc1nc(-c2ncccn2)sc1C(=O)OCCn1c(C)nc2ccccc21 | > 100 | – | – | –
CN(Cc1[nH]cc[n+]1Cc1ccccc1)C(=O)c1cccc2cc[nH][n+]12 | > 100 | – | – | –
COc1cccc(-c2nc(C(=O)OCc3cccnc3)c(C)[nH]2)c1 | – | – | 4.64 | 14.8
CN(CCc1cccc2ccccc12)C(=O)c1c[nH]c(=O)c(Cl)c1 | – | – | 4.89 | 14.8
CN(C)S(=O)(=O)c1cccc(C(=O)N(CCc2ccccc2)c2nc3ccccc3s2)c1 | > 100 | – | – | –
Cc1ccc(C(=O)[C@H](C)Oc2cccc(N3C(=O)C4C5C=CC(C5)C4C3=O)c2)cc1 (some centres not stated) | > 100 | > 100 | – | –
O=C(c1ccccc1)[C@H]1CCCN(C(=O)CCc2nc(-c3ccco3)no2)C1 | – | > 100 | – | –
Cc1nn(-c2ccccc2)c(N2CCCC2)c1/C=N/n1cnc2c(cnn2-c2ccccc2)c1=O | > 100 | > 100 | – | –
Cc1cccc(C)c1NC(=O)CCCN1C(=O)c2cccnc2C1=O | – | – | 4.56 | 33.9
Cc1[nH]c2ccc(C(=O)N3CCN(Cc4ccc5c(c4)OCO5)CC3)cc2c1C | > 100 | > 100 | – | –
Cc1cc([C@@H]2CCCCN2C(=O)c2ccc(-c3cc[nH]n3)cc2)no1 | > 100 | > 100 | – | –
CCN(Cc1cccnc1)C(=O)CN(c1ccc(OC)nc1)S(=O)(=O)c1ccccc1C | – | – | 8.17 | –
CN1C(=O)c2ccc(C(=O)OCCCn3c(=O)[nH]c4ccccc43)cc2C1=O | > 100 | > 100 | – | –
O=C1/C(=C/c2ccc(N3CCOCC3)cc2)c2ccccc2N1c1ccccc1 | – | – | – | 17.8
CN(Cc1[nH]cc[n+]1C)C(=O)CCCc1c[nH]c2ccccc12 | > 100 | – | – | –
Cc1nc(C(=O)N2CCC[C@H]2Cc2nnc(-c3ccccc3)o2)c(-c2ccccc2F)s1 | – | – | 6.7 | 0.00389

SMILES | IC50 [1] [µM] | IC50 [2] [µM] | pKi [1] | Ki [2] [µM]
Cc1ccc(-n2nccn2)c(C(=O)N2CCN(c3nc4cc(Cl)ccc4o3)CC[C@H]2C)c1 [SUVOREXANT] | – | – | 8.53 | –
O=C1c2ccccc2C(=O)N1CCc1nc(-c2cnccn2)no1 | > 100 | – | – | –
O=C(c1cc(S(=O)(=O)N2CCOCC2)ccc1Cl)N1CCn2c1nc1ccccc12 | > 100 | > 100 | – | –
CCC(=O)N1CCCN([C@@H](C)C(=O)Nc2ccccc2C(C)=O)CC1 | > 100 | – | – | –
Cc1nc(-c2ccc(Cl)c(S(=O)(=O)N3CCC[C@@H](C(=O)N4CCc5ccccc54)C3)c2)no1 | > 100 | > 100 | – | –
Cc1ccc(C(=O)N2CCN(Cc3nnc(-c4ccco4)o3)CC2)cc1F | > 100 | – | – | –
O=C(c1cnc(-c2ccccc2)s1)N1CCC[C@H]1c1ccncc1 | > 100 | > 100 | – | –
O=C(Cc1ccc(Cl)cc1)N1CCC(c2noc(-c3ccccn3)n2)CC1 | > 100 | – | – | –
c1ccc(-c2n[nH]cc2-c2nc3c(cnn3Cc3ccncc3)[nH]2)cc1 | – | – | 4.82 | 24.5
O=C(CCC(=O)c1ccc2c(c1)OCCO2)Nc1cccc(C#Cc2ccccn2)c1 | > 100 | > 100 | – | –
COc1ccc2cc(CN(C)C(=O)COC(=O)c3c(F)cccc3F)ccc2c1 | – | > 100 | – | –
COc1cc(=O)n2c(c1C(=O)N(C)Cc1nonc1C)CCN(C(=O)C1(c3ccccc3)CC1)CC2 | > 100 | > 100 | – | –
O=C(/C=C/c1cccc(F)c1)N1CCOc2c(cc(-c3cccnc3)cc2OC[C@H]2CCCCO2)C1 | > 100 | – | – | –
O=C1N=C(O)/C(=C\c2ccccc2OCc2ccccc2F)C(=O)N1c1ccc2c(c1)OCO2 | – | > 100 | – | –
Cc1nc(COc2ccc(C(=O)N3CCC[C@@H]3c3ccc4c(c3)OCCO4)cc2)cs1 | – | > 100 | – | –
COc1cccc(CN2CC3(CCN(Cc4nccs4)CC3)CC2=O)c1 | > 100 | – | – | –
O=C1CCCN1c1cccc(C(=O)N(Cc2ccc(F)cc2)C2CC2)c1 | > 100 | – | – | –
